Data on 25 compounds can be found in US20100227859A1, “TRICYCLIC COMPOUNDS AS MATRIX METALLOPROTEINASE INHIBITORS” (priority 2007, published 2010).

SMILES strings stand for the structures.

Sequence of purified human MMP-12 enzyme (P39900 106-470): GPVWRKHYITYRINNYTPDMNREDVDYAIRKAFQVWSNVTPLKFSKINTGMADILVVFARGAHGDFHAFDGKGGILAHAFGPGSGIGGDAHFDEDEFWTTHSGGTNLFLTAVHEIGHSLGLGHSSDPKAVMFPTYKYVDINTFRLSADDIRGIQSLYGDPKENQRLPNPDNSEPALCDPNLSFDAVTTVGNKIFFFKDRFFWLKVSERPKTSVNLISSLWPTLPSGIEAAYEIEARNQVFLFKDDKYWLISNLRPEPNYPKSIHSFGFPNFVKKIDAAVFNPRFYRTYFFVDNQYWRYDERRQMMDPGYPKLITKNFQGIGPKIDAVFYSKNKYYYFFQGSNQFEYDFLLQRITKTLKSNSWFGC

The target of the assay is purified human MMP-12 enzyme (Homo sapiens, UniProt P39900). In words: MMP-12 FRET assay. Type of assay: biochemical. The conditions noted are these: substrate 20 μM, room temperature. In short, it runs like this:
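Initial fluorescence rate (325/395 nm) of cleavage of MCA-Pro-Leu-Gly-Leu-Dpa(DNP)-Ala-Arg, 20 μM final, was followed for 30 min at room temperature after a 30 min enzyme–compound preincubation. Buffer: 50 mM HEPES pH 7.4, 100 mM NaCl, 5 mM CaCl2, 0.005% Brij-35, with 10% final DMSO. IC50 came from a Hill-type fit of rate versus inhibitor concentration.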
Turning to `CC(C)[C@H](NS(=O)(=O)c1ccc2c(c1)sc1c(-c3ccsc3Cl)cccc12)C(=O)O` [Compound 51, (S)-2-(6-(2-chlorothiophen-3-yl)dibenzo[b,d]thiophene-3-sulfonamido)-3-methylbutanoic acid], the IC50 is above 1000 nM.
The figure for `Cc1noc(C)c1-c1ccc2sc3cc(S(=O)(=O)N[C@H](C(=O)O)C(C)C)ccc3c2c1` [Compound 27, (S)-2-(8-(3,5-dimethylisoxazol-4-yl)dibenzo[b,d]thiophene-3-sulfonamido)-3-methylbutanoic acid] is 700 nM.
For the compound `Cc1cscc1-c1ccc2c(c1)oc1ccc(S(=O)(=O)N[C@@H](C(=O)O)C(C)C)cc12` [Compound 99, (R)-3-methyl-2-(7-(4-methylthiophen-3-yl)dibenzo[b,d]furan-2-sulfonamido)butanoic acid], half-maximal inhibition (IC50) was put at 12 nM. This IC50 lies about 58-fold lower than the previous one.
Regarding `CC(C)[C@@H](NS(=O)(=O)c1ccc2oc3cc(-c4cn[nH]c4)ccc3c2c1)C(=O)O` [Compound 103, (R)-2-(7-(1H-pyrazol-4-yl)dibenzo[b,d]furan-2-sulfonamido)-3-methylbutanoic acid], the IC50 was 16 nM.
Next, `CCN(C#Cc1ccc2oc3cc(S(=O)(=O)N[C@H](C(=O)O)C(C)C)ccc3c2c1)CC` [Compound 39, (S)-2-(8-((diethylamino)ethynyl)dibenzo[b,d]furan-3-sulfonamido)-3-methylbutanoic acid]: 39 nM.
The figure for `CC(C)[C@@H](NS(=O)(=O)c1ccc2oc3cc(-c4cccs4)ccc3c2c1)C(=O)O` [Compound 118, (R)-3-methyl-2-(7-(thiophen-2-yl)dibenzo[b,d]furan-2-sulfonamido)butanoic acid] is 0.6 nM; for `CCc1ccc(-c2ccc3c(c2)oc2ccc(S(=O)(=O)N[C@@H](C(=O)O)C(C)C)cc23)s1` [Compound 239, (R)-2-(7-(5-ethylthiophen-2-yl)dibenzo[b,d]furan-2-sulfonamido)-3-methylbutanoic acid] it is below 1.5 nM.
The figure for `CCN(CC)C(=N)c1ccc2oc3cc(S(=O)(=O)N[C@H](C(=O)O)C(C)C)ccc3c2c1` [Compound 106, (S)-2-(8-(N,N-diethylcarbamimidoyl)dibenzo[b,d]furan-3-sulfonamido)-3-methylbutanoic acid] is 400 nM; for `Cc1cscc1-c1ccc2oc3cc(S(=O)(=O)N[C@H](C(=O)O)C(C)C)ccc3c2c1` [Compound 5, (S)-3-methyl-2-(8-(4-methylthiophen-3-yl)dibenzo[b,d]furan-3-sulfonamido)butanoic acid] it is 2.2 nM.
`CC(C)[C@H](NS(=O)(=O)c1ccc2c(c1)oc1ccc(-c3ncon3)cc12)C(=O)O` [Compound 93, (S)-2-(8-(1,2,4-oxadiazol-3-yl)dibenzo[b,d]furan-3-sulfonamido)-3-methylbutanoic acid] yielded a 50% inhibitory concentration (IC50) of 68 nM.
Compound `Cc1ccc(-c2ccc3c(c2)oc2cc(S(=O)(=O)N[C@H](C(=O)O)C(C)C)ccc23)s1` [Compound 142, (S)-3-methyl-2-(7-(5-methylthiophen-2-yl)dibenzo[b,d]furan-3-sulfonamido)butanoic acid] gave an IC50 of 2.5 nM. This IC50 lies about 27-fold lower than the previous one.
The compound `CC(C)[C@H](NS(=O)(=O)c1ccc2c(c1)sc1cc(-c3ccccc3)ccc12)C(=O)O` [Compound 313, (S)-3-methyl-2-(7-phenyldibenzo[b,d]thiophene-3-sulfonamido)butanoic acid] showed an IC50 below 1.5 nM.
Compound `Cc1ccc2nc(-c3ccc4oc5cc(S(=O)(=O)N[C@H](C(=O)O)C(C)C)ccc5c4c3)sc2c1` [Compound 210, (S)-3-methyl-2-(8-(6-methylbenzo[d]thiazol-2-yl)dibenzo[b,d]furan-3-sulfonamido)butanoic acid] showed a half-maximal inhibitory concentration (IC50) of 12 nM.
Turning to `CC(C)[C@H](NS(=O)(=O)c1ccc2c(c1)oc1ccc(-c3ccsc3)cc12)C(=O)O` [Compound 28, (S)-3-methyl-2-(8-(thiophen-3-yl)dibenzo[b,d]furan-3-sulfonamido)butanoic acid], the IC50 is below 1.5 nM.
Next, `CC(C)[C@H](NS(=O)(=O)c1ccc2c(c1)oc1ccc(-c3noc(C4CCCC4)n3)cc12)C(=O)O` [Compound 263, (S)-2-(8-(5-cyclopentyl-1,2,4-oxadiazol-3-yl)dibenzo[b,d]furan-3-sulfonamido)-3-methylbutanoic acid]: 2.5 nM.
Compound `CC(C)[C@H](NS(=O)(=O)c1ccc2c(c1)oc1ccc(-c3cnn(Cc4ccccc4)c3)cc12)C(=O)O` [Compound 22, (S)-2-(8-(1-benzyl-1H-pyrazol-4-yl)dibenzo[b,d]furan-3-sulfonamido)-3-methylbutanoic acid] showed a half-maximal inhibitory concentration (IC50) of 3 nM.
Next, `CC(C)[C@@H](NS(=O)(=O)c1ccc2oc3cc(-c4noc(C5CCCC5)n4)ccc3c2c1)C(=O)O` [Compound 190, (R)-2-(7-(5-cyclopentyl-1,2,4-oxadiazol-3-yl)dibenzo[b,d]furan-2-sulfonamido)-3-methylbutanoic acid]: 2.2 nM; `CC(C)[C@H](NS(=O)(=O)c1ccc2c(c1)oc1ccc(-c3ccc(-c4nnn[nH]4)s3)cc12)C(=O)O` [Compound 207, (S)-2-(8-(5-(1H-tetrazol-5-yl)thiophen-2-yl)dibenzo[b,d]furan-3-sulfonamido)-3-methylbutanoic acid]: 8.4 nM.
Next, `Cc1nc(-c2ccccc2)sc1-c1ccc2c(c1)oc1ccc(S(=O)(=O)N[C@@H](C(=O)O)C(C)C)cc12` [Compound 176, (R)-3-methyl-2-(7-(4-methyl-2-phenylthiazol-5-yl)dibenzo[b,d]furan-2-sulfonamido)butanoic acid]: 97 nM; `CC(C)(C)c1nc(-c2ccc3c(c2)oc2ccc(S(=O)(=O)N[C@H](C(=O)O)c4ccccc4)cc23)no1` [Compound 281, (S)-2-(7-(5-tert-butyl-1,2,4-oxadiazol-3-yl)dibenzo[b,d]furan-2-sulfonamido)-2-phenylacetic acid]: 90 nM; `CC(C)[C@H](NS(=O)(=O)c1ccc2c(c1)oc1ccc(-c3ccc(-c4ccno4)s3)cc12)C(=O)O` [Compound 211, (S)-2-(8-(5-(isoxazol-5-yl)thiophen-2-yl)dibenzo[b,d]furan-3-sulfonamido)-3-methylbutanoic acid]: 295 nM.
As to `CC(C)[C@H](NS(=O)(=O)c1ccc2c(c1)oc1ccc(/C=C/C3CCCCC3)cc12)C(=O)O` [Compound 35, (S,E)-2-(8-(2-cyclohexylvinyl)dibenzo[b,d]furan-3-sulfonamido)-3-methylbutanoic acid], the concentration for half-maximal inhibition (IC50) is below 1.5 nM.
For `CC(C)[C@H](NS(=O)(=O)c1ccc2c(c1)oc1ccc(-c3nc4c(s3)CCCC4)cc12)C(=O)O` [Compound 307, (S)-3-methyl-2-(8-(4,5,6,7-tetrahydrobenzo[d]thiazol-2-yl)dibenzo[b,d]furan-3-sulfonamido)butanoic acid], the IC50 was below 1.5 nM.
`COC#Cc1ccc2oc3cc(S(=O)(=O)N[C@H](C(=O)O)C(C)C)ccc3c2c1` [Compound 38, (S)-2-(8-(methoxyethynyl)dibenzo[b,d]furan-3-sulfonamido)-3-methylbutanoic acid] had an IC50 below 1.5 nM.
The figure for `CC(C)[C@H](NS(=O)(=O)c1ccc2c(c1)oc1ccc(-c3cc4ccccc4s3)cc12)C(=O)O` [Compound 13, (S)-2-(8-(benzo[b]thiophen-2-yl)dibenzo[b,d]furan-3-sulfonamido)-3-methylbutanoic acid] is 1.7 nM.
